Assay results reported in PubChem BioAssay (NCI).
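Where inhibition never reached the appropriate level, the endpoint shown equals the highest concentration tested. Otherwise, values were interpolated linearly from a five-concentration, 48-hour dose response in 96-well plates. GI50: concentration for 50% inhibition of growth. At the TGI there is no net growth.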

Columns and labels:
Experiment in all cases: NCI anticancer screen, dose series, 48 h
[1] = test system: RXF 393 renal
[2] = test system: IGROV1 ovarian
[3] = test system: NCI/ADR-RES ovarian
[4] = test system: SF-539 CNS
[5] = test system: MALME-3M melanoma
[6] = test system: MCF7 breast
[7] = test system: U251 CNS
[8] = test system: OVCAR-4 ovarian
[9] = test system: SW-620 colon
[10] = test system: HS 578T breast

SMILES | GI50 [1] [µM] | TGI [1] [µM] | GI50 [2] [µM] | TGI [2] [µM] | GI50 [3] [µM] | TGI [3] [µM] | GI50 [4] [µM] | TGI [4] [µM] | GI50 [5] [µM] | TGI [5] [µM] | GI50 [6] [µM] | TGI [6] [µM] | GI50 [7] [µM] | TGI [7] [µM] | GI50 [8] [µM] | TGI [8] [µM] | GI50 [9] [µM] | TGI [9] [µM] | TGI [10] [µM]
CC1=C(c2ccccc2)C(O)(c2ccccc2)C(C)C1=O (stereo unspecified) | 17.4 | > 100 | 10.3 | > 100 | 2.95 | 9.94 | 17.1 | > 100 | 27.7 | > 100 | 13 | > 100 | 22.1 | > 100 | 24.3 | > 100 | 6.18 | > 100 | 
CN(C)CCNC(=O)c1cccc2cc3c(Cl)cccc3nc12 |  | 3.62 |  | 6.96 |  |  |  | 4.03 |  | 2.1 |  |  |  | 6.3 |  | 8.15 |  | 6.17 | 
COc1ccc2c3c([nH]c2c1[N+](=O)[O-])C(C)N(Cc1ccccc1)CC3 (stereo unspecified) |  | 17.9 |  | 30.9 |  |  |  | 5.24 |  |  |  |  |  | 8.73 |  | > 100 |  | > 100 | 
CCOC(=O)C(=O)CC1=Nc2ccccc2SC(c2cccc(C)c2)C1 (stereo unspecified) |  |  |  | 35.7 |  |  |  | 35.1 |  | 31 |  |  |  | 31 |  | 32 |  | 43.4 | 
O=C1N2Cc3c4ccc5c3CN3C(=O)N6Cc7c(ccc(c7CN1C6(c1ccccc1)C23c1ccccc1)OCCOCCNCCOCCO4)OCCOCCNCCOCCO5 (stereo unspecified) |  | > 100 |  | > 100 |  |  |  | > 100 |  | 59.6 |  |  |  | > 100 |  | > 100 |  | 50.8 | 
c1ccc(C2OC3(CCC[C@H]4C[C@H]43)O[C@H]2c2ccccc2)cc1 (stereo partly specified) |  | 79 |  | > 100 |  |  |  | > 100 |  | 88 |  |  |  | > 100 |  | > 100 |  | > 100 | 
N/C(=N\N=C\c1ccc(C(F)(F)F)cc1)NO |  | > 100 |  | 33.2 |  |  |  | 50.6 |  | > 100 |  |  |  | 87.3 |  | > 100 |  | > 100 | 
O=C([CH-]C(=O)c1ccccc1)c1ccccc1.[CH-]1CCCCC1.[CH-]1CCCCC1.[CH-]1CCCCC1.[Sn+4] | 2.71 | 10.1 | 11.8 | 33.4 |  |  | 10.4 | 27 | 8.75 | 22.1 |  |  | 6.86 | 20.8 |  |  | 3 | 9.72 | 
CC1=C(C(=O)Nc2ccccc2)C(c2cccc3ccccc23)C(C(=O)Nc2ccccc2)=C(C)N1 |  | 29.2 |  | 56.9 |  |  |  | 37.9 |  | 37.4 |  |  |  | 31.3 |  |  |  | 55.1 | 
ClC/C=C/COC1CCCCO1 (stereo unspecified) |  | > 100 |  | > 100 |  |  |  | > 100 |  | > 100 |  |  |  | > 100 |  | > 100 |  | > 100 | 
COc1ccc2c(c1OC)CO[C@@H]2[C@H]1c2c(cc3c(c2OC)OCO3)CCN1S(=O)(=O)c1cn(C)cn1 |  |  | 1.45 | > 100 | 1.97 | 8.35 | 1.57 | 5.66 | 0.77 | > 100 | 0.407 | > 100 | 2.24 | > 100 | 6.65 | > 100 | 1.2 | > 100 | 
O=C(CC1OC(O)C(Cl)=C1Cl)c1cccnc1 (stereo unspecified) |  | > 100 |  | > 100 |  |  |  | 1.41 |  | > 100 |  |  |  | > 57.7 |  | > 100 |  | > 33.9 | 
O=C(/C=C/c1ccccc1F)c1ccc(Cl)c(Cl)c1 |  | 62.4 |  | > 72.6 |  |  |  | > 100 |  | > 100 |  |  |  |  |  | > 100 |  | > 66.3 | 
CN(C)c1ccc2oc(=O)c3ccccc3c2c1 |  | 78.9 |  | > 100 |  |  |  | > 100 |  | > 100 |  |  |  | 58.7 |  | > 100 |  | > 100 | 92
O=C1C=CC=C/C1=C1/SC(c2ccccc2)=C(O)N1c1ccccc1 |  | > 100 |  | > 100 |  |  |  | > 100 |  | > 100 |  |  |  | > 100 |  | > 100 |  | > 100 | 
O=c1[nH]c2ccccc2nc1/C=C(\O)c1ccccc1O |  | > 100 |  | > 100 |  |  |  |  |  | > 100 |  |  |  | > 100 |  | > 100 |  | > 100 | 
Cc1cc2c(C)n(Cc3ccccc3Cl)nc2c(C(=O)O)c1C |  | > 100 |  | > 100 |  |  |  | > 100 |  | > 100 |  |  |  | > 100 |  |  |  | > 100 | 
CC1/C(=N\O)CC(c2ccccc2)N(C)C1c1ccccc1 (stereo unspecified) |  | > 100 |  | > 100 |  |  |  | > 100 |  | > 100 |  |  |  | > 100 |  | > 100 |  | > 100 | 
